What was measured:
Type in all cases: in vivo, rat
plasma glucose level [1] = test: Plasma glucose level after nasal administration of insulin to rats; conditions: before administration=100
Protocol: Male SD strain rats (body weights 250 g, approx.) fasted for 16 hours are used in groups of at least 3 animals. Each animal is anesthetized with pentobarbital and administered nasal medication in accordance with the method described in International Journal of Pharmaceutics 7, 317 (1981). Then, 0.1 ml/kg of insulin solution is directly administered into the nasal cavity with a micropipette via the nostril.
The insulin solution used is a mixed solution of 10 U or 20 U of porcine insulin (about 0.2 mg or […]) and 0 mg to 10 mg [which correspond to 0 to 10%] of α-, β- or γ-cyclodextrin in 0.1 ml of an isotonic buffer solution (pH 7.4).
As control, insulin is intravenously administered and plasma glucose levels are determined in the manner as above.

plasma glucose level [2] = test: Plasma glucose level after vaginal administration of insulin to rats; conditions: for Plasma glucose level (%): just before administration=100; for reduction in the area under the plasma glucose level-time curve within 6 hours after administration: mean±standard error
plasma glucose level [3] = test: Plasma glucose level after rectal administration of insulin solution to rats; conditions: insulin 50 IU/kg, before administration=100
plasma glucose level [4] = test: Plasma glucose level after rectal insulin suppository in rats; conditions: rectal Witepsol W-35 suppository, insulin 50 IU/kg, before administration=100
Excerpt: The results, which are shown in Table 11, indicate that the addition of α- or β-cyclodextrin results in an increased absorption of insulin.

## insulin: porcine insulin
Plasma glucose level [1]; intranasal, insulin 10 U/Kg, no cyclodextrin, 1 hr.
  Change (%) in plasma glucose level: 93.7%
Plasma glucose level [1]; intranasal, insulin 10 U/Kg, no cyclodextrin, 2 hr.
  Change (%) in plasma glucose level: 99.3%
Plasma glucose level [1]; intranasal, insulin 10 U/Kg, no cyclodextrin, 4 hr.
  Change (%) in plasma glucose level: 103.0%
Plasma glucose level [1]; intranasal, insulin 10 U/Kg, α-cyclodextrin 3%, 1 hr.
  Change (%) in plasma glucose level: 73.5%
Plasma glucose level [1]; intranasal, insulin 10 U/Kg, α-cyclodextrin 3%, 2 hr.
  Change (%) in plasma glucose level: 59.7%
Plasma glucose level [1]; intranasal, insulin 10 U/Kg, α-cyclodextrin 3%, 4 hr.
  Change (%) in plasma glucose level: 62.9%
Plasma glucose level [1]; intranasal, insulin 10 U/Kg, α-cyclodextrin 5%, 1 hr.
  Change (%) in plasma glucose level: 59.4%
Plasma glucose level [1]; intranasal, insulin 10 U/Kg, α-cyclodextrin 5%, 2 hr.
  Change (%) in plasma glucose level: 46.8%
Plasma glucose level [1]; intranasal, insulin 10 U/Kg, α-cyclodextrin 5%, 4 hr.
  Change (%) in plasma glucose level: 54.4%
Plasma glucose level [1]; intranasal, insulin 10 U/Kg, α-cyclodextrin 10%, 1 hr.
  Change (%) in plasma glucose level: 33.8%
Plasma glucose level [1]; intranasal, insulin 10 U/Kg, α-cyclodextrin 10%, 2 hr.
  Change (%) in plasma glucose level: 24.8%
Plasma glucose level [1]; intranasal, insulin 10 U/Kg, α-cyclodextrin 10%, 4 hr.
  Change (%) in plasma glucose level: 40.3%
Plasma glucose level [1]; intranasal, insulin 10 U/Kg, β-cyclodextrin 10% (suspension), 1 hr.
  Change (%) in plasma glucose level: 62.5%
Plasma glucose level [1]; intranasal, insulin 10 U/Kg, β-cyclodextrin 10% (suspension), 2 hr.
  Change (%) in plasma glucose level: 48.6%
Plasma glucose level [1]; intranasal, insulin 10 U/Kg, β-cyclodextrin 10% (suspension), 4 hr.
  Change (%) in plasma glucose level: 49.7%
Plasma glucose level [1]; intranasal, insulin 10 U/Kg, γ-cyclodextrin 10%, 1 hr.
  Change (%) in plasma glucose level: 80.0%
Plasma glucose level [1]; intranasal, insulin 10 U/Kg, γ-cyclodextrin 10%, 2 hr.
  Change (%) in plasma glucose level: 81.0%
Plasma glucose level [1]; intranasal, insulin 10 U/Kg, γ-cyclodextrin 10%, 4 hr.
  Change (%) in plasma glucose level: 74.2%
Plasma glucose level [1]; intranasal, insulin 20 U/Kg, no cyclodextrin, 1 hr.
  Change (%) in plasma glucose level: 92.4%
Plasma glucose level [1]; intranasal, insulin 20 U/Kg, no cyclodextrin, 2 hr.
  Change (%) in plasma glucose level: 90.6%
Plasma glucose level [1]; intranasal, insulin 20 U/Kg, no cyclodextrin, 4 hr.
  Change (%) in plasma glucose level: 99.9%
Plasma glucose level [1]; intranasal, insulin 20 U/Kg, α-cyclodextrin 5%, 1 hr.
  Change (%) in plasma glucose level: 64.3%
Plasma glucose level [1]; intranasal, insulin 20 U/Kg, α-cyclodextrin 5%, 2 hr.
  Change (%) in plasma glucose level: 38.4%
Plasma glucose level [1]; intranasal, insulin 20 U/Kg, α-cyclodextrin 5%, 4 hr.
  Change (%) in plasma glucose level: 47.9%
Plasma glucose level [1]; intravenous, insulin 5 U/Kg, no cyclodextrin, 1 hr.
  Change (%) in plasma glucose level: 29.6%
Plasma glucose level [1]; intravenous, insulin 5 U/Kg, no cyclodextrin, 2 hr.
  Change (%) in plasma glucose level: 31.6%
Plasma glucose level [1]; intravenous, insulin 5 U/Kg, no cyclodextrin, 4 hr.
  Change (%) in plasma glucose level: 41.7%
Plasma glucose level [2]; intravaginal (5% α-CD), insulin 20 Unit/kg, 0.5 hour
  Plasma glucose level (%): 66.5%
Plasma glucose level [2]; intravaginal (5% α-CD), insulin 20 Unit/kg, 1 hour
  Plasma glucose level (%): 52.7%
Plasma glucose level [2]; intravaginal (5% α-CD), insulin 20 Unit/kg, 2 hour
  Plasma glucose level (%): 40.0%
Plasma glucose level [2]; intravaginal (5% α-CD), insulin 20 Unit/kg, 3 hour
  Plasma glucose level (%): 33.7%
Plasma glucose level [2]; intravaginal (5% α-CD), insulin 20 Unit/kg, 4 hour
  Plasma glucose level (%): 31.4%
Plasma glucose level [2]; intravaginal (5% α-CD), insulin 20 Unit/kg, 6 hour
  Plasma glucose level (%): 41.5%
Plasma glucose level [2]; intravaginal (physiological saline), insulin 20 Unit/kg, no cyclodextrin, 0.5 hour
  Plasma glucose level (%): 80.7%
Plasma glucose level [2]; intravaginal (physiological saline), insulin 20 Unit/kg, no cyclodextrin, 1 hour
  Plasma glucose level (%): 75.8%
Plasma glucose level [2]; intravaginal (physiological saline), insulin 20 Unit/kg, no cyclodextrin, 2 hour
  Plasma glucose level (%): 77.2%
Plasma glucose level [2]; intravaginal (physiological saline), insulin 20 Unit/kg, no cyclodextrin, 3 hour
  Plasma glucose level (%): 74.2%
Plasma glucose level [2]; intravaginal (physiological saline), insulin 20 Unit/kg, no cyclodextrin, 4 hour
  Plasma glucose level (%): 66.9%
Plasma glucose level [2]; intravaginal (physiological saline), insulin 20 Unit/kg, no cyclodextrin, 6 hour
  Plasma glucose level (%): 67.8%
Plasma glucose level [2]; intravaginal, insulin 20 units/kg, 5% α-cyclodextrin
  pharmacological effect versus control vaginal administration group: almost doubled
Plasma glucose level [2]; intravaginal, insulin 20 units/kg, 5% α-cyclodextrin (invention group)
  reduction in the area under the plasma glucose level-time curve within 6 hours after administration: 339.9±11.2 %×hour
Plasma glucose level [2]; intravaginal, insulin 20 units/kg, no cyclodextrin (control group)
  reduction in the area under the plasma glucose level-time curve within 6 hours after administration: 158.2±29.6 %×hour
Plasma glucose level [2]; subcutaneous, insulin 5 Unit/kg, no cyclodextrin, 0.5 hour
  Plasma glucose level (%): 67.0%
Plasma glucose level [2]; subcutaneous, insulin 5 Unit/kg, no cyclodextrin, 1 hour
  Plasma glucose level (%): 54.7%
Plasma glucose level [2]; subcutaneous, insulin 5 Unit/kg, no cyclodextrin, 2 hour
  Plasma glucose level (%): 42.2%
Plasma glucose level [2]; subcutaneous, insulin 5 Unit/kg, no cyclodextrin, 3 hour
  Plasma glucose level (%): 35.1%
Plasma glucose level [2]; subcutaneous, insulin 5 Unit/kg, no cyclodextrin, 4 hour
  Plasma glucose level (%): 37.5%
Plasma glucose level [2]; subcutaneous, insulin 5 Unit/kg, no cyclodextrin, 6 hour
  Plasma glucose level (%): 74.1%
Plasma glucose level [3]; 5% (w/v) α-cyclodextrin, 0.5 hr.
  Change (%) in plasma glucose level: 92.9%
Plasma glucose level [3]; 5% (w/v) α-cyclodextrin, 1 hr.
  Change (%) in plasma glucose level: 39.1%
Plasma glucose level [3]; 5% (w/v) α-cyclodextrin, 1.5 hr.
  Change (%) in plasma glucose level: 39.6%
Plasma glucose level [3]; 5% (w/v) α-cyclodextrin, 2 hr.
  Change (%) in plasma glucose level: 69.6%
Plasma glucose level [3]; 5% (w/v) β-cyclodextrin, 0.5 hr.
  Change (%) in plasma glucose level: 94.3%
Plasma glucose level [3]; 5% (w/v) β-cyclodextrin, 1 hr.
  Change (%) in plasma glucose level: 70.1%
Plasma glucose level [3]; 5% (w/v) β-cyclodextrin, 1.5 hr.
  Change (%) in plasma glucose level: 76.3%
Plasma glucose level [3]; 5% (w/v) β-cyclodextrin, 2 hr.
  Change (%) in plasma glucose level: 90.1%
Plasma glucose level [3]; 5% (w/v) γ-cyclodextrin, 0.5 hr.
  Change (%) in plasma glucose level: 94.8%
Plasma glucose level [3]; 5% (w/v) γ-cyclodextrin, 1 hr.
  Change (%) in plasma glucose level: 79.0%
Plasma glucose level [3]; 5% (w/v) γ-cyclodextrin, 1.5 hr.
  Change (%) in plasma glucose level: 81.3%
Plasma glucose level [3]; 5% (w/v) γ-cyclodextrin, 2 hr.
  Change (%) in plasma glucose level: 93.0%
Plasma glucose level [3]; no cyclodextrin, 0.5 hr.
  Change (%) in plasma glucose level: 102.2%
Plasma glucose level [3]; no cyclodextrin, 1 hr.
  Change (%) in plasma glucose level: 86.0%
Plasma glucose level [3]; no cyclodextrin, 1.5 hr.
  Change (%) in plasma glucose level: 95.2%
Plasma glucose level [3]; no cyclodextrin, 2 hr.
  Change (%) in plasma glucose level: 121.9%
Plasma glucose level [4]; 5% (w/w) α-cyclodextrin, 0.5 hr.
  Change (%) in plasma glucose level: 93.1%
Plasma glucose level [4]; 5% (w/w) α-cyclodextrin, 1 hr.
  Change (%) in plasma glucose level: 61.1%
Plasma glucose level [4]; 5% (w/w) α-cyclodextrin, 1.5 hr.
  Change (%) in plasma glucose level: 63.5%
Plasma glucose level [4]; 5% (w/w) α-cyclodextrin, 2 hr.
  Change (%) in plasma glucose level: 86.1%
Plasma glucose level [4]; 5% (w/w) α-cyclodextrin, 3 hr.
  Change (%) in plasma glucose level: 93.4%
Plasma glucose level [4]; 5% (w/w) β-cyclodextrin, 0.5 hr.
  Change (%) in plasma glucose level: 87.1%
Plasma glucose level [4]; 5% (w/w) β-cyclodextrin, 1 hr.
  Change (%) in plasma glucose level: 81.5%
Plasma glucose level [4]; 5% (w/w) β-cyclodextrin, 1.5 hr.
  Change (%) in plasma glucose level: 80.1%
Plasma glucose level [4]; 5% (w/w) β-cyclodextrin, 2 hr.
  Change (%) in plasma glucose level: 92.5%
Plasma glucose level [4]; 5% (w/w) β-cyclodextrin, 3 hr.
  Change (%) in plasma glucose level: 100.4%
Plasma glucose level [4]; no cyclodextrin, 0.5 hr.
  Change (%) in plasma glucose level: 98.1%
Plasma glucose level [4]; no cyclodextrin, 1 hr.
  Change (%) in plasma glucose level: 94.1%
Plasma glucose level [4]; no cyclodextrin, 1.5 hr.
  Change (%) in plasma glucose level: 97.4%
Plasma glucose level [4]; no cyclodextrin, 2 hr.
  Change (%) in plasma glucose level: 98.1%
Plasma glucose level [4]; no cyclodextrin, 3 hr.
  Change (%) in plasma glucose level: 102.5%

Source: patent publication US4659696A, “Pharmaceutical composition and its nasal or vaginal use” (Takeda Chemical Industries, Ltd., priority 1982, dated 1987)
